Data: patent publication US8425894B2, “Use of oligomers of lactic acid in the treatment of gynaecological disorders” (priority 2007, dated 2013)

Experiments:
[1] = Comparison of in vitro release from lactic acid and OMLA 30 through a dialysis membrane; assay type: physicochemical
Method: 200 mg of LA or OMLA was placed in a dialysis bags. The bags were immersed in 50 ml of water (37° C.) and stirred in the same temperature for 48 hours. After 3, 6, 24 and 48 hours the acceptor liquid was removed and replaced with fresh water. The pH was measured at regular intervals. The liquid was titrated with 0.1 or 0.01 M KOH to measure how much LA equivalents are released. Then an excess of KOH was added and after 24 hours the solution was titrated with 0.1 or 0.01 HCl. […] The results are presented in FIG. 4A. pH was measured outside of the dialysis bags each hour between 1 to 10 and periodically up to 48 hours (FIG. 4B).

[2] = Mucoadhesive properties of OMLA formulations (5 graded VAS scale); assay type: physicochemical; details: 0 = no, 4 = very pronounced mucoadhesive properties, fluid form
Method: Mucoadhesiveness (or bioadhesiveness) is given according to a 5 graded VAS scale, where 0 denotes no mucoadhesive properties and 4 very pronounced mucoadhesive properties.
Chemical and preformulation experiments were carried out in order to determine mucoadhesiveness of OMLA in gel or semisolid forms (see table below). The mucoadhesiveness for the OMLA judged for fluid, gel, patch, and vagitoria. Muco(Bio)adhesiveness is given according to a 5 graded VAS scale, where 0 denotes no mucoadhesive properties and 4 very pronounced mucoadhesive properties.

What does the source list for `CC(O)C(=O)O` (stereo not drawn) [LA, lactic acid]?
release from the dialysis bag ([1]; 200 mg in dialysis bag, 50 ml water, 37° C.): immediately; ability to maintain constant acidic pH outside the dialysis bag ([1]; 50 ml water 37° C., replaced after 3, 6, 24, 48 h): not able to maintain acidic pH constant; Mucoadhesiveness, Fluid [2]: 0
